Source: US5985273A, “Biological control of insects” (priority 1994, dated 1999)

Legend:
[1] = tested on: Teleogryllus commodus; assay: Mortality of black field cricket nymphs on treated cabbage leaf disks; type: in vivo; settings: 30 mM; after 7 days
Experimental: (i) Stock solutions of inhibitors and control solutions were prepared as aqueous solutions or suspensions as outlined in Table 6.1.
(ii) Mortality was assessed by commencing the study with 1st instar nymphs.
(iii) Cabbage leaf disks (5×8 mm diameter disks/treatment) were smeared with 100 μl of inhibitor or control stock solutions and allowed to dry. Disks were placed singly in 40 mm petri dishes, together with a moist cotton wool pas as water supply and a piece of fluted plastic for shelter.
(iv) Ten nymphs were placed on each disc and the dishes incubated at 25° C.
(v) Mortality was assessed daily and any dead individuals removed.

[2] = tested on: L. cuprina eggs; assay: Egg hatch of L. cuprina on liver in vitro; type: in vivo, Lucilia cuprina; settings: 24 hours at 35° C., control 71
Experimental: L. cuprina eggs were placed on pieces of liver (0.9 g) which were then placed in individual wells of a 24-well tissue culture plate. Phosphate buffered saline (PBS, 0.1 ml) containing inhibitors at set concentrations were added to each well with 30 freshly laid and sterilised eggs of L. cuprina. The culture plate was then maintained in a sterile environment at 35° C. for 24 hours, after which time the percentage hatch was assessed.

[3] = tested on: O. surinamensis larvae; assay: Weight reduction of Oryzaephylus surinamensis larvae in treated flour; type: in vivo
Experimental: Insects were cultured in cleaned, ground and sieved wholemeal flour made from organic wheat. Inhibitors from bottles of pre-weighed material were dry-mixed with the flour and residual inhibitor rinsed from bottles with a small volume of water. Rinse water was added to the flour and the mixture re-ground. The impregnated flour was transferred to a 20 mL vial and mixed thoroughly by shaking and inverting.
Adults of T. castaneum were allowed to oviposit on flour, eggs were sifted from the flour and transferred one by one with a single hair to microwell tubes containing a small amount of flour. Each level of treatment was performed in triplicated using 32 wells/replicate. Assays were performed in triplicated. Cultures were incubated at 30° C. and 55% R H.
The bioassay for this insect was outlined for T. castaneum, except incubations were conducted at 32.5° C. and 70% R H. After 8 days the insects were sieved from the flour and weighed.

[4] = tested on: Heliothis punctigens larvae; assay: Growth and survival of cotton budworm larvae fed an artificial diet; type: in vivo; settings: 10 days; for % Alive: control 70.0; for Average Laval Weight: control 165.4
Experimental: 1. The Haricot beans were cooked in a microwave for 40 minutes. 2. Agar was added to the hot water and stirred on a hot plate until almost boiling. 3. The haricot beans, agar mix, yeast and wheat germ was blended in an electric mixer for 3 minutes. 4. When the temperature has dropped to 60°C., the acids were added and mixed with the media. […] Inhibitor solutions or an equal volume of water were placed into sterilized glass tubes at designated concentrations. The artificial media was added to each tube (1.5 ml) using a sterile 10 ml syringe. First instar Heliothis punctigens larvae (1 larvae per tube) were added to the glass tubes and the tubes were capped. The tubes were incubated for 10 days at 25° C. The larvae were killed by placing the glass tubes at -70° C. for 24 hours, and then individually weighed. Percentage inhibition was calculated by comparison to control larvae.

[5] = tested on: Lucilia cuprina larvae; assay: Growth and survival of first instar sheep blowfly larvae on culture medium with inhibitor; type: in vivo; settings: for % Growth Incubation / Average Larval Weight: Table 2.3; for Average Larval Weight: control 9.08
[6] = tested on: Bovicola ovis (Hartley strain); assay: Survival of sheep lice on inhibitor treated wool; type: in vivo; settings: of 10 lice
[7] = tested on: Ctenocephalides felis; assay: Development of cat flea eggs in dried blood diets; type: in vivo; settings: Day 16
Experimental: Blood was collected from the jugular vein of a five year old merino sheep that had not been treated with an ectoparasitic agent for 18 months. The blood was collected into a 100 ml plastic bottle containing 0.8 ml of heparin and was maintained at 4° C. Inhibitors were pre-weighed into sterile 5 ml plastic vials and 4.5 ml of blood added. The samples were mixed, placed at -70° C. for 24 hours, then freeze-dried. The freeze-dried samples were sieved through a stainless steel 63 micron sieve, and placed into sterile 5 ml plastic vials (0.15 g/per tube). Four flea eggs were placed into each vial, and a sheet of tissue paper fastened by an elastic band was fitted to the top of each vial. The vials were incubated at 25° C. and 70-80% R H for 6 days. Vermiculite was then added to each vial to provide a supporting medium for the fleas to pupate and the tubes incubated at 25° C. and 70-80% R H, for a further 10 days. Ten control vials and three vials of each treatment were tested.
At the conclusion of the incubation period the vials were placed at -20° C. for 24 hours to kill the fleas. The number of eggs hatched and the life-cycle state was recorded.

[8] = tested on: Tribolium castaneum; assay: Growth and survival of Tribolium castaneum in treated flour; type: in vivo; settings: Day 6; all dose levels
Experimental: Insects were cultured in cleaned, ground and sieved wholemeal flour made from organic wheat. Inhibitors from bottles of pre-weighed material were dry-mixed with the flour and residual inhibitor rinsed from bottles with a small volume of water. Rinse water was added to the flour and the mixture re-ground. The impregnated flour was transferred to a 20 mL vial and mixed thoroughly by shaking and inverting. Adults of T. castaneum were allowed to oviposit on flour, eggs were sifted from the flour and transferred one by one with a single hair to microwell tubes containing a small amount of flour. Each level of treatment was performed in triplicated using 32 wells/replicate. Assays were performed in triplicated. Cultures were incubated at 30° C. and 55% R H. After 6 days each replicate of 32 wells was combined, the larvae counted and the numbers compared with numbers in the control (no inhibitor) treatment. Larvae were classified as "small" if appreciably smaller than reference larvae, or abnormal if unusual behaviour or formation were observed (eg. twisting or twisted larvae). Test inhibitors and dose rates were the same as those used in Example 4.

O=C(O)CN(CCN(CC(=O)O)CC(=O)O)CC(=O)O [EDTA, ethylene diamine tetraacetic acid]
Mortality [1]: 78% | Mortality (class) [1]: High (high 41-100%) | % Hatch ([2]; 2 mM): 10% | % Hatch ([2]; 5 mM): 0% | % Hatch ([2]; 10 mM): 10% | inhibition at 10000 µM ([3]; 192 h, 10 mM, 8 days, relative to untreated larvae, read-out: Percentage Growth Inhibition): 32% | inhibition at 20000 µM ([3]; 192 h, 20 mM, 8 days, relative to untreated larvae, read-out: Percentage Growth Inhibition): 4% | inhibition at 30000 µM ([3]; 192 h, 30 mM, 8 days, relative to untreated larvae, read-out: Percentage Growth Inhibition): 28% | Growth inhibition, summary in words ([3]; text summary of Table 9.1): moderately effective | % Alive ([4]; 2.5 mM): 50.0% | Average Laval Weight ([4]; 2.5 mM): 123.6 mg | % Alive ([4]; 5.0 mM): 33.3% | Average Laval Weight ([4]; 5.0 mM): 9.25 mg | % Alive ([4]; 10.0 mM): 67.0% | Average Laval Weight ([4]; 10.0 mM): 4.75 mg | inhibition at 2500 µM ([4]; Heliothis, 240 h, 2.5 mM, read-out: % Growth Inhibition): 25.3% | inhibition at 5000 µM ([4]; Heliothis, 240 h, 5.0 mM, read-out: % Growth Inhibition): 94.4% | inhibition at 10000 µM ([4]; Heliothis, 240 h, 10.0 mM): 97.1% | Effect on larval growth, summary in words ([5]; Example 1, Table 1.2): effective growth inhibitors | inhibition at 5000 µM ([5]; Lucilia cuprina, first instar larvae, 5 mM): 84% | % Growth Incubation ([5]; 0.25 mM): -6.6% | Average Larval Weight ([5]; 0.25 mM): 9.68 10^-4 g | % Growth Incubation ([5]; 0.50 mM): 39.8% | Average Larval Weight ([5]; 0.50 mM): 5.47 10^-4 g | % Growth Incubation ([5]; 1.0 mM): 69.7% | Average Larval Weight ([5]; 1.0 mM): 2.75 10^-4 g | % Growth Incubation ([5]; 1.5 mM): 51.2% | Average Larval Weight ([5]; 1.5 mM): 4.43 10^-4 g | % Growth Incubation ([5]; 2.0 mM): 72.4% | Average Larval Weight ([5]; 2.0 mM): 2.51 10^-4 g | Larval survival ([5]; first instar larvae, 10 mM): All killed | Number of Living Lice ([6]; Adult, 10 mM, 24 Hours at 35° C.): 2 | Number of Living Lice ([6]; Adult, 20 mM, 24 Hours at 35° C.): 1 | Number of Living Lice ([6]; Adult, third EDTA line, concentration not given, 24 Hours): 0 | Number of Living Lice ([6]; instar 1, 10 mM, 24 Hours at 35° C.): 0 | Number of Living Lice ([6]; instar 1, 20 mM, 24 Hours at 35° C.): 0 | Number of Living Lice ([6]; instar 1, third EDTA line, concentration not given, 24 Hours): 0 | Number of Living Lice ([6]; instar 2, 10 mM, 24 Hours at 35° C.): 2 | Number of Living Lice ([6]; instar 2, 20 mM, 24 Hours at 35° C.): 1 | Number of Living Lice ([6]; instar 2, third EDTA line, concentration not given, 24 Hours): 0 | Number of Living Lice ([6]; instar 3, 10 mM, 24 Hours at 35° C.): 1 | Number of Living Lice ([6]; instar 3, 20 mM, 24 Hours at 35° C.): 0 | Number of Living Lice ([6]; instar 3, third EDTA line, concentration not given, 24 Hours): 0 | Percentage of Fleas Progressing Through to Pupation ([7]; 1.5625 mg in 4.5 ml of blood, control 97.5): 0% | Percentage of Fleas Progressing Through to Pupation ([7]; 3.125 mg in 4.5 ml of blood): 0% | Percentage of Fleas Progressing Through to Pupation ([7]; 6.25 mg in 4.5 ml of blood): 0% | Larval size classification [8]: small
